{"source": "patent US7700765B2", "about": "“DNA minor groove binding compounds” (University of Strathclyde, priority 2001, dated 2010)", "key": {"[1]": {"system": "NFκB protein-DNA complexes", "experiment": "NFκB DNA-binding assay (gel shift) with macrophage nuclear extracts", "format": "biochemical, Murine", "conditions": "1 μL of a 1 mM solution, final volume 10 μL; nuclear protein from macrophages exposed to LPS", "procedure": "Murine macrophages (obtained and cultured as described in Cell. Signal. 11(7), 491 (1999), hereinafter referred to as “Reference 1”, the disclosures of which document are hereby incorporated by reference) were exposed to vehicle (see Reference 1) or 1 μg/mL lipopolysaccharide (LPS; the active component of gram-negative endotoxin and a strong activator of the Nuclear Factor kappa B (NFκB) pathway; the particular LPS being obtained from Salmonella minnesota) for 1 hour and nuclear extracts prepared by standard procedures (see Brit. J. Pharmacol. 134, 393 (2001), hereinafter referred to as “Reference 2”, the disclosures of which document are hereby incorporated by reference).\nAliquots of compounds (1 μL of a 1 mM solution) were incubated with 1 μL (0.035 pmol) of a ^32P-labelled 20 bp double-stranded DNA oligonucleotide (representing the consensus binding sequence for NFκB proteins (see Reference 2 and Brit. J. Pharmacol. 134, 1629-1638 (2001), the disclosures of which latter document are hereby incorporated by reference)) for 30 min at room temperature. […] The formation of NFκB protein-DNA complexes and potential inhibition of complex formation in the presence of the above compounds was detected by autoradiography. […]"}, "[2]": {"system": "MS1 sequence (radio-labelled DNA, SEQ ID NO:6)", "experiment": "DNA footprinting (DNase I)", "format": "binding", "conditions": "concentration of 0.03 μM", "procedure": "DNA footprinting is a well-established technique in which a section of radio-labelled DNA (SEQ ID NO:6) is incubated with a chemical or biological cleaving agent, in the presence and absence of a putative binding ligand. Regions of ligand binding will show as blanks in the ‘ladder’. Knowing the DNA sequence, the binding sites can then be deduced, from the location of these blanks. The sequence shown in FIGS. 7 and 8 is MS1, which contains all possible four-base-pair binding sites. The procedure used in the footprinting experiments was analogous to that described in J. Med. Chem. 43, 3257 (2000), the disclosures of which document are hereby incorporated by reference. In an analogous manner to the procedure described in J. Med. Chem. 43, 3257 (2000), the MS1 sequence was labelled at the 3′-end with [α-^32P]dATP using reverse transcriptase. The agent used to cleave the radio-labelled DNA was DNase I. Bases that fall within the “footprint” of a compound are indicated by XX . . . XX underneath the sequence. The binding domain that has been confirmed by capillary electrophoresis is indicated by XX. XX."}, "[3]": {"system": "double-stranded DNA decamer CGACTAGTCG (SEQ ID NO:3)", "experiment": "Capillary electrophoresis ligand-DNA binding study", "conditions": "drug to DNA ratio up to 4:1", "source_text": "(§1) Typically, ligand binding results in a change in migration time of the DNA and sometimes a change in peak shape.\n(§2) The following are shown in FIGS. 1-6: • (a) the experimental conditions, including the DNA sequence(s); • (b) the result of sequential addition of ligand; and • (c) the structure of the ligand being investigated. Key to FIGS. 1 to 6: • r0=electropherogram in the absence of drug • rX=(where X is 0.5, 1, 2, 3 or 4) electropherogram in the presence of drug, where the drug:DNA ratio (in terms of concentration) is X:1\n(§3) This ratio corresponds to the binding ratio."}, "[4]": {"system": "mixture of double-stranded DNA oligonucleotides AAATTATATTAT (SEQ ID NO:1) and GGACTAGTCG (SEQ ID NO:4)", "experiment": "Capillary electrophoresis competitive binding study", "conditions": "AAATTATATTAT dodecamer versus GGACTAGTCG decamer", "source_text": "(§4) Capillary electrophoresis was used to study of ligand-DNA binding (see: (i) Hamdan, I. I.; Skellern, G. G.; and Waigh, R. D. “Separation of pd(GC)12 from pd(AT)12 by free solution capillary electrophoresis”, J. Cromatogr. A. 806, 165-168 (1998); (ii) Hamdan, I. I.; Skellern, G. G.; and Waigh, R. D. “Use of capillary electrophoresis in the study of ligand-DNA interactions”, Nucleic Acids Research 26, 3053-3058 (1998); (iii) Hamdan, I. I.; Skellern, G. G.; and Waigh, R. D. “Ligand binding to oligonucleotides” Methods in Molecular Biology, Vol. 163, “Capillary Electrophoresis of Nucleic acids”, Vol 2, pages 379-391, K. R. Mitchelson and J. Cheng Eds., Humana Press, New Jersey, (2000)).\nas §1, §2\nThis ratio corresponds to the binding ratio. […]"}, "[5]": {"system": "double-stranded DNA oligonucleotide CCACTAGTGG (SEQ ID NO:5)", "experiment": "Capillary electrophoresis ligand-DNA binding study", "conditions": "with CCACTAGTGG (SEQ ID NO:5)", "source_text": "as §4, §1, §2, §3"}}}
{"substance": "N-[3-(Dimethylamino)propyl]-2-({[4-({[4-(formylamino)-1-methyl-1H-pyrrol-2-yl]carbonyl}amino)-1-methyl-1H-pyrrol-2-yl]carbonyl}amino)-5-isopropyl-1,3-thiazole-4-carboxamide [Example 3]", "values": [{"measurement": "effect on LPS-stimulated NFκB-DNA binding activity", "setting": "[1]", "value": "appeared to inhibit"}, {"measurement": "footprint on MS1 sequence", "setting": "[2]", "value": "binding to only one site on the MS1 sequence"}, {"measurement": "affinity for the sequence", "setting": "[3]", "value": "strong affinity"}, {"measurement": "relative affinity in competitive binding", "setting": "[4]", "value": "greater affinity for the decamer ACTA sequence"}, {"measurement": "binding result", "setting": "[5]", "value": "identical with that achieved with the sequence in FIG. 3"}]}
